Measured values from PubChem BioAssay (NCI).
Where “and” joins values, the source holds several entries; their conditions need not be identical. Equal entries are not always repeated.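 Test compounds were applied to cells in 96-well plates for 48 hours at 5 doses. The concentration for 50% growth inhibition is given as GI50. TGI marks complete inhibition of growth.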

Legend:
Assay in all cases: NCI-60 cell line screen, 48 h
786-0 renal = test system: 786-0 renal
A498 renal = test system: A498 renal
A549 NSCLC = test system: A549 NSCLC
ACHN renal = test system: ACHN renal
BT-549 breast = test system: BT-549 breast
CAKI-1 renal = test system: CAKI-1 renal
CCRF-CEM leukemia = test system: CCRF-CEM leukemia
COLO 205 colon = test system: COLO 205 colon
DU-145 prostate = test system: DU-145 prostate
EKVX NSCLC = test system: EKVX NSCLC
HCC-2998 colon = test system: HCC-2998 colon
HCT-116 colon = test system: HCT-116 colon
HCT-15 colon = test system: HCT-15 colon
HL-60(TB) leukemia = test system: HL-60(TB) leukemia
HOP-62 NSCLC = test system: HOP-62 NSCLC
HOP-92 NSCLC = test system: HOP-92 NSCLC
HS 578T breast = test system: HS 578T breast
HT29 colon = test system: HT29 colon
IGROV1 ovarian = test system: IGROV1 ovarian
K-562 leukemia = test system: K-562 leukemia
KM12 colon = test system: KM12 colon
LOX IMVI melanoma = test system: LOX IMVI melanoma
M14 melanoma = test system: M14 melanoma
MALME-3M melanoma = test system: MALME-3M melanoma
MCF7 breast = test system: MCF7 breast
MDA-MB-231 breast = test system: MDA-MB-231 breast
MDA-MB-435 = test system: MDA-MB-435
MOLT-4 leukemia = test system: MOLT-4 leukemia
NCI-H226 lung = test system: NCI-H226 lung
NCI-H23 lung = test system: NCI-H23 lung
NCI-H460 lung = test system: NCI-H460 lung
NCI-H522 lung = test system: NCI-H522 lung
NCI/ADR-RES ovarian = test system: NCI/ADR-RES ovarian
OVCAR-3 ovarian = test system: OVCAR-3 ovarian
OVCAR-4 ovarian = test system: OVCAR-4 ovarian
OVCAR-5 ovarian = test system: OVCAR-5 ovarian
OVCAR-8 ovarian = test system: OVCAR-8 ovarian
PC-3 prostate = test system: PC-3 prostate
RPMI-8226 leukemia = test system: RPMI-8226 leukemia
RXF 393 renal = test system: RXF 393 renal
SF-268 CNS = test system: SF-268 CNS
SF-295 CNS = test system: SF-295 CNS
SF-539 CNS = test system: SF-539 CNS
SK-MEL-2 melanoma = test system: SK-MEL-2 melanoma
SK-MEL-28 melanoma = test system: SK-MEL-28 melanoma
SK-MEL-5 melanoma = test system: SK-MEL-5 melanoma
SK-OV-3 ovarian = test system: SK-OV-3 ovarian
SN12C renal = test system: SN12C renal
SNB-19 CNS = test system: SNB-19 CNS
SNB-75 CNS = test system: SNB-75 CNS
SR leukemia = test system: SR leukemia
SW-620 colon = test system: SW-620 colon
T-47D breast = test system: T-47D breast
TK-10 renal = test system: TK-10 renal
U251 CNS = test system: U251 CNS
UACC-257 melanoma = test system: UACC-257 melanoma
UACC-62 melanoma = test system: UACC-62 melanoma
UO-31 renal = test system: UO-31 renal

COc1cccc(Nc2ncnn3ccc(CN4CC[C@@H](N)[C@H](O)C4)c23)c1
GI50 (786-0 renal): 1.08 µM and 1.18 µM | TGI (786-0 renal): 20.6 µM and > 10 µM | GI50 (A498 renal): 1.12 µM and 0.861 µM | TGI (A498 renal): 4.72 µM and 3.75 µM | GI50 (A549 NSCLC): 2.22 µM and 0.928 µM | TGI (A549 NSCLC): 23.6 µM and > 7.05 µM | GI50 (ACHN renal): 0.0305 µM and 0.0373 µM | TGI (ACHN renal): 6.96 µM and 7.74 µM | GI50 (BT-549 breast): 14.2 µM and > 4.68 µM | TGI (BT-549 breast): 47.7 µM and > 7.41 µM | GI50 (CAKI-1 renal): 0.2 µM and 0.242 µM | TGI (CAKI-1 renal): 2.52 µM and > 4.35 µM | GI50 (CCRF-CEM leukemia): 25.2 µM and > 4.58 µM | TGI (CCRF-CEM leukemia): > 100 µM | GI50 (COLO 205 colon): 3.73 µM and 3.13 µM | TGI (COLO 205 colon): 18.2 µM and > 6.18 µM | GI50 (DU-145 prostate): 1.59 µM and 0.927 µM | TGI (DU-145 prostate): > 100 µM | GI50 (EKVX NSCLC): 0.0275 µM and 0.0282 µM | TGI (EKVX NSCLC): > 100 µM | GI50 (HCC-2998 colon): 15.6 µM and > 3.65 µM | TGI (HCC-2998 colon): 36.1 µM and > 9.59 µM | GI50 (HCT-116 colon): 6.69 µM and 2.55 µM | TGI (HCT-116 colon): 26.4 µM and > 6.8 µM | GI50 (HCT-15 colon): 3.24 µM and 2.15 µM | TGI (HCT-15 colon): 97.9 µM and > 10 µM | GI50 (HL-60(TB) leukemia): 20.3 µM and > 4.71 µM | TGI (HL-60(TB) leukemia): 41.1 µM and > 8.1 µM | GI50 (HOP-62 NSCLC): 4.22 µM and 0.506 µM | TGI (HOP-62 NSCLC): 27.3 µM and > 10 µM | GI50 (HOP-92 NSCLC): 0.125 µM and 0.194 µM | TGI (HOP-92 NSCLC): 5.21 µM and > 6.86 µM | GI50 (HS 578T breast): 0.698 µM and 0.395 µM | TGI (HS 578T breast): 5.18 µM and 2.69 µM | GI50 (HT29 colon): 8.67 µM and > 2.25 µM | TGI (HT29 colon): > 56.6 µM | GI50 (IGROV1 ovarian): 0.407 µM and 0.0561 µM | TGI (IGROV1 ovarian): 6.79 µM and 2.73 µM | GI50 (K-562 leukemia): 0.285 µM and 0.168 µM | TGI (K-562 leukemia): 10.2 µM and > 10 µM | GI50 (KM12 colon): 3.31 µM and 2.88 µM | TGI (KM12 colon): 15.3 µM and > 10 µM | GI50 (LOX IMVI melanoma): 4.58 µM and 1.33 µM | TGI (LOX IMVI melanoma): 21.1 µM and > 5.65 µM | GI50 (M14 melanoma): 20.4 µM and > 5.03 µM | TGI (M14 melanoma): 36 µM and > 10 µM | GI50 (MALME-3M melanoma): 17.6 µM and > 4.83 µM | TGI (MALME-3M melanoma): 35.2 µM and > 10 µM | GI50 (MCF7 breast): 11.3 µM and > 4.2 µM | TGI (MCF7 breast): 24.5 µM and > 8.69 µM | GI50 (MDA-MB-231 breast): 2.3 µM and 1.54 µM | TGI (MDA-MB-231 breast): 25.9 µM and > 10 µM | GI50 (MDA-MB-435): 14.8 µM and > 4.71 µM | TGI (MDA-MB-435): 29.9 µM and > 10 µM | GI50 (MOLT-4 leukemia): 5.68 µM and 2.26 µM | TGI (MOLT-4 leukemia): 33.2 µM and > 10 µM | GI50 (NCI-H226 lung): 2.66 µM and 1.38 µM | TGI (NCI-H226 lung): 13 µM and > 8.94 µM | GI50 (NCI-H23 lung): 2.53 µM and 3.05 µM | TGI (NCI-H23 lung): 18.4 µM and > 10 µM | GI50 (NCI-H460 lung): 18.5 µM and > 4.66 µM | TGI (NCI-H460 lung): 68.1 µM and > 9.16 µM | GI50 (NCI-H522 lung): 0.0245 µM and 0.0175 µM | TGI (NCI-H522 lung): 15.1 µM and > 4.56 µM | GI50 (NCI/ADR-RES ovarian): 4.32 µM and 2.93 µM | TGI (NCI/ADR-RES ovarian): 39.7 µM and > 10 µM | GI50 (OVCAR-3 ovarian): 3.92 µM and 1.63 µM | TGI (OVCAR-3 ovarian): > 60.8 µM | GI50 (OVCAR-4 ovarian): 13.3 µM and > 5.11 µM | TGI (OVCAR-4 ovarian): 55.4 µM and > 10 µM | GI50 (OVCAR-5 ovarian): 0.467 µM and 0.357 µM | TGI (OVCAR-5 ovarian): 32.5 µM and > 10 µM | GI50 (OVCAR-8 ovarian): 2.73 µM and 1.66 µM | TGI (OVCAR-8 ovarian): 40.3 µM and > 10 µM | GI50 (PC-3 prostate): 15.2 µM and > 2.39 µM | TGI (PC-3 prostate): > 100 µM | GI50 (RPMI-8226 leukemia): 20.9 µM and > 5.39 µM | TGI (RPMI-8226 leukemia): 68 µM and > 10 µM | GI50 (RXF 393 renal): 0.601 µM and 0.405 µM | TGI (RXF 393 renal): 5.11 µM and 2.41 µM | GI50 (SF-268 CNS): 4.42 µM and 1.62 µM | TGI (SF-268 CNS): 99.7 µM and > 6.67 µM | GI50 (SF-295 CNS): 12.2 µM and > 5.6 µM | TGI (SF-295 CNS): 45.5 µM and > 10 µM | GI50 (SF-539 CNS): 1.72 µM and 1.08 µM | TGI (SF-539 CNS): 13.5 µM and > 7.44 µM | GI50 (SK-MEL-2 melanoma): 19.9 µM and > 4.7 µM | TGI (SK-MEL-2 melanoma): 39.8 µM and > 7.19 µM | GI50 (SK-MEL-28 melanoma): 17 µM and > 5.4 µM | TGI (SK-MEL-28 melanoma): 31.1 µM and > 10 µM | GI50 (SK-MEL-5 melanoma): 14.5 µM and > 5.6 µM | TGI (SK-MEL-5 melanoma): 27.8 µM and > 10 µM | GI50 (SK-OV-3 ovarian): 0.0386 µM and 0.0322 µM | TGI (SK-OV-3 ovarian): 0.772 µM and 0.129 µM | GI50 (SN12C renal): 0.265 µM and 0.304 µM | TGI (SN12C renal): 18.5 µM and > 10 µM | GI50 (SNB-19 CNS): 14.4 µM and 8.98 µM | TGI (SNB-19 CNS): 97.7 µM and > 10 µM | GI50 (SNB-75 CNS): 0.102 µM and 0.043 µM | TGI (SNB-75 CNS): 0.808 µM and 0.49 µM | GI50 (SR leukemia): 5.19 µM and > 4.99 µM | TGI (SR leukemia): 40.7 µM and > 10 µM | GI50 (SW-620 colon): 17.7 µM and > 4.35 µM | TGI (SW-620 colon): 44.5 µM and > 10 µM | TGI (T-47D breast): 29.2 µM and > 6.86 µM | GI50 (TK-10 renal): 0.0322 µM and 0.0167 µM | TGI (TK-10 renal): 1.65 µM and 1.5 µM | GI50 (U251 CNS): 14.4 µM and > 5.46 µM | TGI (U251 CNS): 49.3 µM and > 10 µM | GI50 (UACC-257 melanoma): 17.5 µM and > 5.79 µM | TGI (UACC-257 melanoma): 34 µM and > 10 µM | GI50 (UACC-62 melanoma): 20.4 µM and > 3.85 µM | TGI (UACC-62 melanoma): 41.3 µM and > 9.23 µM | GI50 (UO-31 renal): 0.145 µM and 0.132 µM | TGI (UO-31 renal): 5.02 µM and 4.12 µM
